Measured values from publication PMC8352664 (The Journal of Biological Chemistry, 2021).

Experiments:
Format in all cases: binding, human
TRAV12-2 TCR NR2F = details: pH 7.5
TRAV12-1 TCR NR1C = details: pH 7.5
TRAV12^+ TCRs = test system: TRAV12^+ TCRs
TRAV12-1 TCR NR1A = details: pH 7.5
TRAV12-1 TCR NR1D = details: pH 7.5

Row | Sequence | KD, NR2F (TRAV12-2 TCR NR2F) | KD, NR1C (TRAV12-1 TCR NR1C) | TCR binding to HLA-A2 presenting the changed epitope (TRAV12^+ TCRs) | KD, NR1A (TRAV12-1 TCR NR1A) | KD, NR1D (TRAV12-1 TCR NR1D)
1 | TLDPRSFLL [PAR1] | N.B. | N.B. |  |  | 
2 | YLQPSTFLL [S^269–277R273S] | N.B. | N.B. | completely abrogated TCR binding | N.B. | N.B.
